A value given as a limit tells only on which side of the number the result lay.

In experiment [1] the target is Protein Nef/Tyrosine-protein kinase HCK (Homo sapiens, UniProt P03406+P08631). The experiment is described as follows: In Vitro Kinase Assay. The note with it: 25 °C. From the text:
(§1) In vitro kinase activity of Nef-Hck complex and Hck alone using Z'-lyte kinase assay system and Tyr2 peptide substrate from Invitrogen.

Experiment [2] concerns the target Tyrosine-protein kinase HCK (Homo sapiens, UniProt P08631). In words: In Vitro Kinase Assay. As to conditions: 25 °C.
Source text: as §1

Chain of Protein Nef/Tyrosine-protein kinase HCK (P08631 whole entry, other chains not shown): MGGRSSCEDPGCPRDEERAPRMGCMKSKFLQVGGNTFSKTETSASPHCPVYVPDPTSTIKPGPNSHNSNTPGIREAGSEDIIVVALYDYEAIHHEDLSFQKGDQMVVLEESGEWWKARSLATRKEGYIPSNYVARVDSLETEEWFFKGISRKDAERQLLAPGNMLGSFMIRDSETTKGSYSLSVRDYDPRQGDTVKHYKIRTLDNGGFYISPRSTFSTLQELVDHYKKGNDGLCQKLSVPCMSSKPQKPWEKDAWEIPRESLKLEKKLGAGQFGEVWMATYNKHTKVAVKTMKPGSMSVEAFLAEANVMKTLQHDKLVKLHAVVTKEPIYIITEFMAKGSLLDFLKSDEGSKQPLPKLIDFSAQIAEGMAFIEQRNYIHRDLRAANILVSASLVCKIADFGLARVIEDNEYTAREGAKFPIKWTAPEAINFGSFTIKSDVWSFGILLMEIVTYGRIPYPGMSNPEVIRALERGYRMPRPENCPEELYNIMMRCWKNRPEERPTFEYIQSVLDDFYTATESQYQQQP
Chain of Tyrosine-protein kinase HCK (P08631 whole entry): as the sequence (P08631 whole entry, other chains not shown) above

As for `OCCCCNc1ncnc2oc(-c3ccccc3)c(-c3ccccc3)c12` [DFP-4AB], the IC50 – broadly, the midpoint of a concentration-inhibition curve – in experiment [1] is 16 µM; in experiment [2], above 30 µM.

On to `c1ccc(-c2oc3ncnc(NCCCc4ccco4)c3c2-c2ccccc2)cc1` [DFP-4APF], for which the figures for the IC50 in experiment [1] and in experiment [2] were 2 µM and above 30 µM, respectively.

As to `OCCCNc1ncnc2oc(-c3ccccc3)c(-c3ccccc3)c12` [DFP-4AP], the IC50 worked out at 5.1 µM in experiment [1] and 12.8 µM in experiment [2].

As to `Nc1ncnc2oc(-c3ccccc3)c(-c3ccccc3)c12` [DFP-4A], the IC50 in experiment [1] and in experiment [2] was above 30 µM each time.

Source of the values: BindingDB's records for doi:10.1021/cb900195c (University of Pittsburgh, 2009).
